Consider 2 compounds from patent US6528464B1, “Composition and method for inhibiting uptake of biguanide antimicrobials by hydrogels” (Bausch & Lomb Incorporated, priority 2001, dated 2003).

Structures are written as SMILES.

A short description of the data set: Uptake (sorption) of Alexidine by SureVue hydrogel contact lenses after overnight soak. Type of data set: physicochemical. An excerpt: The following examples evaluate whether the addition of cyclodextrin reduced the sorption of the biguanide Alexidine on SureVue® brand hydrogel contact lenses (commercially available from Johnson & Johnson Vision Care Incorporated of Jacksonville, Fla.).
5. 3-mL of each test solution, as well as the control solution, were placed into the lens cases for a total of 5 samples per solution.
6. SureVue® lenses were placed into each lens well aseptically.
7. Each lens was “dipped” into double-distilled water for approximately 2 seconds prior to installation into the lens cases.
8. Lenses were allowed to soak for approximately 18 hours (overnight).
9. 1-mL of solution from each of the lens wells was removed, analyzed and returned to the lens cases.

Take `CCCCC(CC)CNC(=N)NC(=N)NCCCCCCNC(=N)NC(=N)NCC(CC)CCCC` (centres unmarked) [Alexidine]: the “Uptake of Alexidine by SureVue ® Lenses (0.1% Beta-Cyclodextrin)” value (0.1% Beta-Cyclodextrin, soak approximately 18 hours) is given as 62.10 ppm. Besides, under “0.3% Beta-Cyclodextrin, soak approximately 18 hours”, the “Uptake of Alexidine by SureVue ® Lenses (0.3% Beta-Cyclodextrin)” value was determined as 31.04 ppm. Moreover, the “Uptake of Alexidine By SureVue ® Lenses” value (no Beta-Cyclodextrin (control solution), soak approximately 18 hours) was found to be 75.26 ppm.

For the compound `OC[C@H]1O[C@@H]2O[C@H]3[C@H](O)[C@@H](O)[C@@H](O[C@H]4[C@H](O)[C@@H](O)[C@@H](O[C@H]5[C@H](O)[C@@H](O)[C@@H](O[C@H]6[C@H](O)[C@@H](O)[C@@H](O[C@H]7[C@H](O)[C@@H](O)[C@@H](O[C@H]8[C@H](O)[C@@H](O)[C@@H](O[C@H]1[C@H](O)[C@H]2O)O[C@@H]8CO)O[C@@H]7CO)O[C@@H]6CO)O[C@@H]5CO)O[C@@H]4CO)O[C@@H]3CO` [Beta-Cyclodextrin], the “Inhibition of uptake of Alexidine by SureVue ® Lenses” value is 17.50% Inhibition (0.1% Beta-Cyclodextrin) and 58.75% Inbibition (0.3% Beta-Cyclodextrin).
